Source: ChEMBL document CHEMBL2021825, “Dimerization of β-tryptase inhibitors, does it work for both basic and neutral P1 groups?” (Bioorg Med Chem Lett, 2012)
Active and inactive are the calls of the source. No cut-off for these calls is given here.

Columns and labels:
[1] = test system: Tryptase beta-1 (Homo sapiens), Q15661 [A190S]; assay: Inhibition of human recombinant beta-tryptase A190S mutant using chromogenic substrate S-2366
[2] = Inhibition of human recombinant beta-tryptase using chromogenic substrate S-2366
[3] = organism: Homo sapiens; assay: Inhibition of human recombinant beta-tryptase using chromogenic substrate S-2366 at 30 uM

Chain of Tryptase beta-1 (Homo sapiens), Q15661 [A190S] (Q15661 whole entry A190S): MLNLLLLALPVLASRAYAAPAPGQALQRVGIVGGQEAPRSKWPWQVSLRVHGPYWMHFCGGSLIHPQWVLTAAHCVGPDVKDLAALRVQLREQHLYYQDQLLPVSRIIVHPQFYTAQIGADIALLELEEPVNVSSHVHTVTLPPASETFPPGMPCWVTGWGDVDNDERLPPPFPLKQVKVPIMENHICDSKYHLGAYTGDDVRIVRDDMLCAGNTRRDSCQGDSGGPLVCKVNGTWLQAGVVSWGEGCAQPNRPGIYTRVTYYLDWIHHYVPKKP

Row | SMILES | Ki [2] | also measured
1 | Nc1ncnc2cc(CN3CCN(Cc4cc(-c5ccc(Cl)s5)on4)CC3=O)ccc12 | – | inhibition [1]: inactive
2 | NCc1cccc(C2CCN(C(=O)c3ccccc3)CC2)c1 | 1900 nM | –
3 | NCc1cccc(C2CCN(C(=O)c3cccc(-c4ccc5c(c4)NC(c4c[nH]c6cc(-c7cccc(C(=O)N8CCC(c9cccc(CN)c9)CC8)c7)ccc46)C5)c3)CC2)c1 (stereo not drawn) | 3 nM | –
4 | O=C1CN(Cc2cc(-c3ccc(Cl)s3)on2)CCN1CCCCCCCCCCN1CCN(Cc2cc(-c3ccc(Cl)s3)on2)CC1=O | – | inhibition [3]: inactive

The remaining compounds from weak to strong by Ki [2], led by results:

Row | Ki [2] | SMILES | also measured
5 | 2 nM | NCc1cccc(C2CCN(C(=O)c3cccc(CCCCc4cccc(C(=O)N5CCC(c6cccc(CN)c6)CC5)c4)c3)CC2)c1 | –
6 | 0.34 nM | NCc1cccc(C2CCN(C(=O)c3cccc(C#CC#Cc4cccc(C(=O)N5CCC(c6cccc(CN)c6)CC5)c4)c3)CC2)c1 | –
7 | 0.3 nM | N=C(N)c1cccc(C2CCN(C(=O)c3cccc(CCCCc4cccc(C(=O)N5CCC(c6cccc(C(=N)N)c6)CC5)c4)c3)CC2)c1 | –
8 | 0.29 nM | N=C(N)c1cccc(C2CCN(C(=O)c3cccc(C#CC#Cc4cccc(C(=O)N5CCC(c6cccc(C(=N)N)c6)CC5)c4)c3)CC2)c1 | –
